Measured values reported in patent US20210115044A1, “TRICYCLIC HETEROCYCLE COMPOUNDS USEFUL AS HIV INTEGRASE INHIBITORS” (Merck Sharp & Dohme Corp., priority 2018, published 2021).
Like-named read-outs stand apart in the source and are kept apart here.

System: HIV-1 (H9/IIIB strain)
Assay: Multiple round HIV-1 infection assay in MT4-GFP cells (wild type cell assay, Viking)
Format: cell-based
Settings: MT4-GFP cells infected with HIV-1 H9/IIIB, inhibition of reproductive ratio R0, ~48 h and ~72 h post-infection
Method: The antiviral activity of the Examples herein was assessed in an assay that measures the rate of replication of HIV in cell culture, and performed according to the following procedure. HIV-1 replication was monitored using MT4-gag-GFP clone D3 (hereafter designated MT4-GFP), which are MT-4 cells modified to harbor a GFP reporter gene, the expression of which is dependent on the HIV-1 expressed proteins tat and rev. Productive infection of an MT4-GFP cell with HIV-1 results in GFP expression approximately 24 h post-infection. MT4-GFP cells were maintained at 37° C./5% CO2/90% relative humidity in RPMI 1640 supplemented with 10% fetal bovine serum, 100 U/ml penicillin/streptomycin, and 400 μg/ml G418 to maintain the reporter gene. For infections, MT4-GFP cells were placed in the same medium lacking G418 and infected overnight with HIV-1 (H9/IIIB strain) virus at an approximate multiplicity of infection of 0.01 in the same incubation conditions. Cells were then washed and re-suspended in either RPMI 1640 at 2×10^5 cells/mL (0% NHS condition) or 100% normal human serum (NHS) at 2×10^5 cells/mL (100% NHS condition). Compound plates were prepared by dispensing compounds dissolved in DMSO into wells of 384 well poly-D-lysine-coated plates (0.2 μl/well) using an ECHO acoustic dispenser. Each compound was tested in a 10-point serial 3-fold dilution (typical final concentrations: 1050 nM-0.05 nM for 0% NHS condition or 42 μM-2.13 nM for 100% NHS condition). Controls included no inhibitor (DMSO only) and a combination of three antiviral agents (efavirenz, indinavir, an in-house integrase strand transfer inhibitor at final concentrations of 4 μM each). Cells were added ([…]) to compound plates and the infected cells were maintained at 37° C./5% CO2/90% relative humidity.
Infected cells were quantified at two time points, ˜48 h and ˜72 h post-infection, by counting the number of green cells in each well using an Acumen eX3 scanner. The increase in the number of green cells over ˜24 h period gives the reproductive ratio, R0, which is typically 5-15 and has been shown experimentally to be in logarithmic phase (data not shown). Inhibition of R0 is calculated for each well, and IC50s determined by non-linear 4-parameter curve fitting.

[1] = 0% NHS condition (RPMI 1640), read-out: WILD TYPE CELL ASSAY Viking IP (0% NHS)
[2] = 100% normal human serum condition, read-out: WILD TYPE CELL ASSAY Viking IP (100% NHS)
[3] = Human immunodeficiency virus 1, IIIB, 0% NHS condition (RPMI 1640), read-out: WILD TYPE CELL ASSAY Viking IP (0% NHS)
[4] = Human immunodeficiency virus 1, IIIB, 100% normal human serum condition, read-out: WILD TYPE CELL ASSAY Viking IP (100% NHS)

| IC50 [3] [µM] | SMILES | IC50 [1] [µM] | IC50 [2] [µM] | IC50 [4] [µM] |
| --- | --- | --- | --- | --- |
|  | CC1N(C)C(=O)c2c(O)c(=O)c(C(=O)NCc3ccc(F)cc3F)c3n2C1(C)CC3O (single isomer, unassigned) [Compound 70] | 0.0012 | 0.0263 |  |
| 0.0023 | CCN1CC2(COC)CC(O)c3c(C(=O)NCc4c(F)cc(F)cc4F)c(=O)c(O)c(n32)C1=O (single isomer, unassigned) [Compound 61] |  |  | 0.0959 |
|  | CC1C(O)c2c(C(=O)NCc3ccc(F)cc3F)c(=O)c(O)c3n2C1(C)CN(C)C3=O (single isomer, unassigned) [Compound 80] | 0.0028 | 0.192 |  |
|  | CN1CC2(C)CC(O)c3c(C(=O)NCc4cccc(Cl)c4F)c(=O)c(O)c(n32)C1=O (stereo not shown) [Compound 36] | 0.0021 | 0.0599 |  |
| 0.003 | CN1CC2(C)CC(O)c3c(C(=O)NCc4cccc(Cl)c4F)c(=O)c(O)c(n32)C1=O (single isomer, unassigned) [Compound 33] |  | 1.21 |  |
|  | CC1C(O)c2c(C(=O)NCc3ccc(F)cc3F)c(=O)c(O)c3n2C1(C)CN(C)C3=O (single isomer, unassigned) [Compound 77] | 0.0033 | 4.47 |  |
|  | CC1N(C)C(=O)c2c(O)c(=O)c(C(=O)NCc3ccc(F)cc3F)c3n2C1(C)CC3O (single isomer, unassigned) [Compound 69] | 0.0019 | 0.0775 |  |
|  | CCC12CC(O)c3c(C(=O)NCc4c(F)ccc(Cl)c4F)c(=O)c(O)c(n31)C(=O)N(C)C2 (single isomer, unassigned) [Compound 54] | 0.0028 | 0.0295 |  |
|  | CC1N(C)C(=O)c2c(O)c(=O)c(C(=O)NCc3ccc(F)cc3F)c3n2C1(C)CC3O (single isomer, unassigned) [Compound 68] | 0.0024 | 0.0455 |  |
|  | CC1C(O)c2c(C(=O)NCc3ccc(F)cc3F)c(=O)c(O)c3n2C1(C)CN(C)C3=O (single isomer, unassigned) [Compound 79] | 0.0045 | 0.942 |  |
|  | CCN1CC2(CCOC(F)F)CC(O)c3c(C(=O)NCc4ccc(F)cc4F)c(=O)c(O)c(n32)C1=O (single isomer, unassigned) [Compound 2] | 0.0063 | 0.0949 |  |
|  | CC1C(O)c2c(C(=O)NCc3ccc(F)cc3F)c(=O)c(O)c3n2C1(C)CN(C)C3=O (single isomer, unassigned) [Compound 78] | 0.0032 | 0.383 |  |
|  | CN1CC2(C)CC(O)c3c(C(=O)NCc4ccc(F)cc4)c(=O)c(O)c(n32)C1=O (stereo not shown) [Compound 24] | 0.0012 | 0.201 |  |
|  | CC1N(C)C(=O)c2c(O)c(=O)c(C(=O)NCc3ccc(F)cc3F)c3n2C1(C)CC3O (single isomer, unassigned) [Compound 67] | 0.0023 | 0.0828 |  |
| 0.0019 | CN1CC2(C)CC(O)c3c(C(=O)NCc4c(F)ccc(Cl)c4F)c(=O)c(O)c(n32)C1=O (single isomer, unassigned) [Compound 29] |  | 3.13 |  |
|  | CCC12CC(O)c3c(C(=O)NCc4ccc(F)cc4F)c(=O)c(O)c(n31)C(=O)N(C)C2 (single isomer, unassigned) [Compound 38] | 0.0012 | 0.0325 |  |
|  | CN1CC2(C)CC(O)c3c(C(=O)NCc4c(F)ccc(Cl)c4F)c(=O)c(O)c(n32)C1=O (stereo not shown) [Compound 32] | 0.0021 | 0.0557 |  |
| 0.0021 | CN1CC2(C)CC(O)c3c(C(=O)NCc4cccc(Cl)c4F)c(=O)c(O)c(n32)C1=O (stereo not shown) [Compound 35] |  |  | 0.116 |
|  | CC1C(O)c2c(C(=O)NCc3ccc(F)cc3F)c(=O)c(O)c3n2C1(C)CN(C)C3=O (single isomer, unassigned) [Compound 76] | 0.0025 | 0.237 |  |
|  | CCC12CC(O)c3c(C(=O)NCc4cccc(Cl)c4F)c(=O)c(O)c(n31)C(=O)N(C)C2 (single isomer, unassigned) [Compound 41] | 0.0022 | 0.0304 |  |
|  | CN1CC2(C)CC(O)c3c(C(=O)NCc4c(F)cc(F)cc4F)c(=O)c(O)c(n32)C1=O (stereo not shown) [Compound 27] | 0.0021 | 0.029 |  |

| IC50 [3] [µM] | SMILES | IC50 [1] [µM] | IC50 [2] [µM] | IC50 [4] [µM] |
| --- | --- | --- | --- | --- |
|  | CCN1CC2(COC)CC(O)c3c(C(=O)NCc4c(F)cc(F)cc4F)c(=O)c(O)c(n32)C1=O (stereo not shown) [Compound 64] | 0.0029 | 2.74 |  |
|  | CCC12CC(O)c3c(C(=O)NCc4c(F)cc(F)cc4F)c(=O)c(O)c(n31)C(=O)N(C)C2 (single isomer, unassigned) [Compound 46] | 0.0016 | 0.0368 |  |
|  | CCN1CC2(COC)CC(O)c3c(C(=O)NCc4ccc(F)cc4F)c(=O)c(O)c(n32)C1=O (single isomer, unassigned) [Compound 58] | 0.0023 | 0.27 |  |
|  | CCN1CC2(COC)CC(O)c3c(C(=O)NCc4ccc(F)cc4F)c(=O)c(O)c(n32)C1=O (single isomer, unassigned) [Compound 59] | 0.0032 | 0.106 |  |
|  | CCN1CC2(COC)CC(O)c3c(C(=O)NCc4c(F)cc(F)cc4F)c(=O)c(O)c(n32)C1=O (single isomer, unassigned) [Compound 62] | 0.0024 | 0.0605 |  |
|  | CN1CC2(C)CC(O)c3c(C(=O)NCc4c(F)ccc(Cl)c4F)c(=O)c(O)c(n32)C1=O (single isomer, unassigned) [Compound 30] | 0.0021 | 0.41 |  |
|  | CC1C(O)c2c(C(=O)NCc3ccc(F)cc3F)c(=O)c(O)c3n2C1(C)CN(C)C3=O (single isomer, unassigned) [Compound 75] | 0.0025 | 0.172 |  |
|  | CCN1CC2(CCOC(F)F)CC(O)c3c(C(=O)NCc4ccc(F)cc4F)c(=O)c(O)c(n32)C1=O (single isomer, unassigned) [Compound 1] | 0.0076 | 0.237 |  |
| 0.0023 | CCC12CC(O)c3c(C(=O)NCc4c(F)cc(F)cc4F)c(=O)c(O)c(n31)C(=O)N(C)C2 (stereo not shown) [Compound 47] |  | 1.46 |  |
| 0.0037 | CN1CC2(C)CC(O)c3c(C(=O)NCc4ccc(F)cc4)c(=O)c(O)c(n32)C1=O (single isomer, unassigned) [Compound 21] |  | 0.927 |  |
|  | CCC12CC(O)c3c(C(=O)NCc4ccc(F)cc4F)c(=O)c(O)c(n31)C(=O)N(C)C2 (single isomer, unassigned) [Compound 37] | 0.0022 | 0.547 |  |
|  | CCC12CC(O)c3c(C(=O)NCc4cccc(Cl)c4F)c(=O)c(O)c(n31)C(=O)N(C)C2 (single isomer, unassigned) [Compound 43] | 0.0037 | 1.27 |  |
|  | CC1N(C)C(=O)c2c(O)c(=O)c(C(=O)NCc3ccc(F)cc3F)c3n2C1(C)CC3O (single isomer, unassigned) [Compound 65] | 0.0017 | 0.107 |  |
|  | CCN1CC2(COC)CC(O)c3c(C(=O)NCc4ccc(F)cc4F)c(=O)c(O)c(n32)C1=O (single isomer, unassigned) [Compound 60] | 0.0071 | 1.26 |  |
|  | CCN1CC2(COC)CC(O)c3c(C(=O)NCc4ccc(F)cc4F)c(=O)c(O)c(n32)C1=O (single isomer, unassigned) [Compound 57] | 0.0031 | 9.97 |  |
|  | CN1CC2(C)CC(O)c3c(C(=O)NCc4c(F)cc(F)cc4F)c(=O)c(O)c(n32)C1=O (stereo not shown) [Compound 28] | 0.001 | 0.129 |  |
|  | CCC12CC(O)c3c(C(=O)NCc4ccc(F)cc4F)c(=O)c(O)c(n31)C(=O)N(C)C2 (single isomer, unassigned) [Compound 40] | 0.0019 | 0.0391 |  |
|  | CC1C(O)c2c(C(=O)NCc3ccc(F)cc3F)c(=O)c(O)c3n2C1(C)CN(C)C3=O (single isomer, unassigned) [Compound 74] | 0.0016 | 0.0384 |  |
| 0.0019 | CN1CC2(C)CC(O)c3c(C(=O)NCc4ccc(F)cc4)c(=O)c(O)c(n32)C1=O (stereo not shown) [Compound 23] |  |  | 0.121 |
|  | CCC12CC(O)c3c(C(=O)NCc4c(F)ccc(Cl)c4F)c(=O)c(O)c(n31)C(=O)N(C)C2 (stereo not shown) [Compound 56] | 0.0034 | 0.891 |  |
